Target: PD-L1 His protein / PD-1 Fc protein (Homo sapiens, UniProt Q9NZQ7)
Test: HTRF Assay (PD-1/PD-L1 interaction)
Assay type: binding
Settings: PD-L1 His 6 nM, PD-1 Fc 6 nM
Summary of the method: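 Compounds tested from 20 μM down to 0.001 μM (3-fold) against 6 nM PD-L1 His and 6 nM PD-1 Fc, 15 min room temperature incubation. Detection after 1 h at room temperature with Tb cryptate anti-6HIS and XL665 anti-human IgG reagents (mixture at 0.35 nM and 6.7 nM), HTRF signal.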

Sequence of PD-L1 His protein / PD-1 Fc protein (Q9NZQ7 19-238 limits assumed): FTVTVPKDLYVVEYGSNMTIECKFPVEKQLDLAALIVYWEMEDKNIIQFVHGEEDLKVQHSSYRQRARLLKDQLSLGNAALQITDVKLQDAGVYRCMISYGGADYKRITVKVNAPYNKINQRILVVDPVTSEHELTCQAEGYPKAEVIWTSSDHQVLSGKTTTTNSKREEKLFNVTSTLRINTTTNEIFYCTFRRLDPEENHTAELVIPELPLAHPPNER

Row | Structure (SMILES) | IC50 [nM]
1 | COC(=O)C1CN(Cc2cnc3cc(-c4cccc(-c5cccc(-c6ccc(CN7CC(C(=O)OC)C7)c(OC)n6)c5Cl)c4Cl)ncc3c2)C1 [Example 289, Methyl 1-((6-(2,2′-dichloro-3′-(3-((3-(methoxycarbonyl)azetidin-1-yl)methyl)-1,6-naphthyridin-7-yl)-[1,1′-biphenyl]-3-yl)-2-methoxypyridin-3-yl)methyl)azetidine-3-carboxylate] | 9
2 | COc1nc(-c2cccc(-c3cccc(-c4ccn5c(=O)c(C6=NCC(O)CN6)c(C)nc5c4)c3Cl)c2Cl)ccc1CNC[C@@H]1CCC(=O)N1 (stereo partly drawn) [Example 290, 8-(2,2′-dichloro-3′-(6-methoxy-5-(((((S)-5-oxopyrrolidin-2-yl)methyl)amino)methyl)pyridin-2-yl)-[1,1′-biphenyl]-3-yl)-3-(5-hydroxy-1,4,5,6-tetrahydropyrimidin-2-yl)-2-methyl-4H-pyrido[1,2-a]pyrimidin-4-one] | 0.4
3 | COC(=O)C1CN(Cc2cnc3cc(-c4cccc(-c5cccc(-c6ccc(CNC[C@@H]7CCC(=O)N7)c(OC)n6)c5Cl)c4Cl)cc(C)n3c2=O)C1 [Example 291, (S)-Methyl 1-((8-(2,2′-dichloro-3′-(6-methoxy-5-((((5-oxopyrrolidin-2-yl)methyl)amino)methyl)pyridin-2-yl)-[1,1′-biphenyl]-3-yl)-6-methyl-4-oxo-4H-pyrido[1,2-a]pyrimidin-3-yl)methyl)azetidine-3-carboxylate] | 0.1
4 | CNC(=O)C[C@H](O)CNCc1cnc2cc(-c3cccc(-c4cccc(-c5ccc(CNC[C@@H]6CCC(=O)N6)c(OC)n5)c4Cl)c3Cl)ccn2c1=O [Example 292, (3S)-4-[[8-[2-Chloro-3-[2-chloro-3-[6-methoxy-5-[[[(2S)-5-oxopyrrolidin-2-yl]methylamino]methyl]-2-pyridyl]phenyl]phenyl]-4-oxo-pyrido[1,2-a]pyrimidin-3-yl]methylamino]-3-hydroxy-N-methyl-butanamide] | 0.1
5 | CNC(=O)C[C@H](O)CNCc1cnc2cc(-c3cccc(-c4cccc(-c5cc(F)c(CNC[C@@H]6CCC(=O)N6)c(OC)n5)c4Cl)c3Cl)ccn2c1=O [Example 293, (3S)-4-[[8-[2-Chloro-3-[2-chloro-3-[4-fluoro-6-methoxy-5-[[[(2S)-5-oxopyrrolidin-2-yl]methylamino]methyl]-2-pyridyl]phenyl]phenyl]-4-oxo-pyrido[1,2-a]pyrimidin-3-yl]methylamino]-3-hydroxy-N-methyl-butanamide] | 0.1
6 | COC(=O)CNCc1cnc2cc(-c3cccc(-c4cccc(-c5ccc(CNC[C@@H]6CCC(=O)N6)c(OC)n5)c4Cl)c3Cl)cc(C)n2c1=O [Example 294, (S)-Methyl 2-(((8-(2,2′-dichloro-3′-(6-methoxy-5-((((5-oxopyrrolidin-2-yl)methyl)amino)methyl)pyridin-2-yl)-[1,1′-biphenyl]-3-yl)-6-methyl-4-oxo-4H-pyrido[1,2-a]pyrimidin-3-yl)methyl)amino)acetate] | 0.4
7 | COC(=O)[C@H]1CCN(Cc2cnc3cc(-c4cccc(-c5cccc(-c6ccc(CNC[C@@H]7CCC(=O)N7)c(OC)n6)c5Cl)c4Cl)cc(C)n3c2=O)C1 [Example 295, (S)-Methyl 1-((8-(2,2′-dichloro-3′-(6-methoxy-5-(((((S)-5-oxopyrrolidin-2-yl)methyl)amino)methyl)pyridin-2-yl)-[1,1′-biphenyl]-3-yl)-6-methyl-4-oxo-4H-pyrido[1,2-a]pyrimidin-3-yl)methyl)pyrrolidine-3-carboxylate] | 0.1
8 | COC(=O)C1CN(Cc2c(C)nc3cc(-c4cccc(-c5cccc(-c6ccc(CNC[C@@H]7CCC(=O)N7)c(OC)n6)c5Cl)c4Cl)ccn3c2=O)C1 [Example 296, (S)-Methyl 1-((8-(2,2′-dichloro-3′-(6-methoxy-5-((((5-oxopyrrolidin-2-yl)methyl)amino)methyl)pyridin-2-yl)-[1,1′-biphenyl]-3-yl)-2-methyl-4-oxo-4H-pyrido[1,2-a]pyrimidin-3-yl)methyl)azetidine-3-carboxylate] | 0.5
9 | COc1nc(-c2cccc(-c3cccc(-c4ccn5c(=O)c(CNCC(F)F)cnc5c4)c3Cl)c2Cl)ccc1CNC[C@@H]1CCC(=O)N1 [Example 297, 8-[2-Chloro-3-[2-chloro-3-[6-methoxy-5-[[[(2S)-5-oxopyrrolidin-2-yl]methylamino]methyl]-2-pyridyl]phenyl]phenyl]-3-[(2,2-difluoroethylamino)methyl]pyrido[1,2-a]pyrimidin-4-one] | 320
10 | COc1nc(-c2cccc(-c3cccc(-c4ccn5c(=O)c(CNC[C@H](C)N)cnc5c4)c3Cl)c2Cl)ccc1CNC[C@@H]1CCC(=O)N1 [Example 298, 3-[[[(2S)-2-Aminopropyl]amino]methyl]-8-[2-chloro-3-[2-chloro-3-[6-methoxy-5-[[[(2S)-5-oxopyrrolidin-2-yl]methylamino]methyl]-2-pyridyl]phenyl]phenyl]pyrido[1,2-a]pyrimidin-4-one] | 25
11 | COC(=O)N(C)CCN(C)Cc1ccc(-c2cccc(-c3cccc(-c4ccn5c(=O)c(CN(C)CCN(C)C(=O)OC)cnc5c4)c3Cl)c2Cl)nc1OC [Example 299, methyl (2-(((8-(2,2′-dichloro-3′-(6-methoxy-5-(((2-((methoxycarbonyl)(methyl)amino)ethyl)(methyl)amino)methyl)pyridin-2-yl)-[1,1′-biphenyl]-3-yl)-4-oxo-4H-pyrido[1,2-a]pyrimidin-3-yl)methyl)(methyl)amino)ethyl)(methyl)carbamate] | 3000
12 | COc1nc(-c2cccc(-c3cccc(-c4ccn5c(=O)c(CNCC(F)(F)CO)cnc5c4)c3Cl)c2Cl)ccc1CNC[C@@H]1CCC(=O)N1 [Example 300, (S)-8-(2,2′-Dichloro-3′-(6-methoxy-5-((((5-oxopyrrolidin-2-yl)methyl)amino)methyl)pyridin-2-yl)-[1,1′-biphenyl]-3-yl)-3-(((2,2-difluoro-3-hydroxypropyl)amino)methyl)-4H-pyrido[1,2-a]pyrimidin-4-one] | 130
13 | COc1nc(-c2cccc(-c3cccc(-c4ccn5c(=O)c(CNCC6(CO)CC6)cnc5c4)c3Cl)c2Cl)ccc1CNC[C@@H]1CCC(=O)N1 [Example 301, (S)-8-(2,2′-Dichloro-3′-(6-methoxy-5-((((5-oxopyrrolidin-2-yl)methyl)amino)methyl)pyridin-2-yl)-[1,1′-biphenyl]-3-yl)-3-((((1-(hydroxymethyl)cyclopropyl)methyl)amino)methyl)-4H-pyrido[1,2-a]pyrimidin-4-one] | 40
14 | COc1nc(-c2cccc(-c3cccc(-c4ccn5c(=O)c(CNC[C@H](C)OC)cnc5c4)c3Cl)c2Cl)ccc1CNC[C@@H]1CCC(=O)N1 [Example 302, 8-[2-Chloro-3-[2-chloro-3-[6-methoxy-5-[[[(2S)-5-oxopyrrolidin-2-yl]methylamino]methyl]-2-pyridyl]phenyl]phenyl]-3-[[[(2S)-2-methoxypropyl]amino]methyl]pyrido[1,2-a]pyrimidin-4-one] | 35
15 | COc1nc(-c2cccc(-c3cccc(-c4ccn5c(=O)c(CNCC(F)(F)F)cnc5c4)c3Cl)c2Cl)ccc1CNC[C@@H]1CCC(=O)N1 [Example 303, 8-[2-Chloro-3-[2-chloro-3-[6-methoxy-5-[[[(2S)-5-oxopyrrolidin-2-yl]methylamino]methyl]-2-pyridyl]phenyl]phenyl]-3-[(2,2,2-trifluoroethylamino)methyl]pyrido[1,2-a]pyrimidin-4-one] | 0.4
16 | COC(=O)C1CN(Cc2cnc3cc(-c4cccc(-c5cccc(-c6ccc(CNC[C@@H]7CCC(=O)N7)c(OC)n6)c5Cl)c4Cl)ncc3c2)C1 [Example 304, (S)-Methyl 1-((7-(2,2′-dichloro-3′-(6-methoxy-5-((((5-oxopyrrolidin-2-yl)methyl)amino)methyl)pyridin-2-yl)-[1,1′-biphenyl]-3-yl)-1,6-naphthyridin-3-yl)methyl)azetidine-3-carboxylate] | 0.2
17 | COC(=O)CNCc1cnc2cc(-c3cccc(-c4cccc(-c5ccc(CNC[C@@H]6CCC(=O)N6)c(OC)n5)c4Cl)c3Cl)ncc2c1 [Example 305, (S)-Methyl 2-(((7-(2,2′-dichloro-3′-(6-methoxy-5-((((5-oxopyrrolidin-2-yl)methyl)amino)methyl)pyridin-2-yl)-[1,1′-biphenyl]-3-yl)-1,6-naphthyridin-3-yl)methyl)amino)acetate] | 0.4
18 | COc1nc(-c2cccc(-c3cccc(-c4ccn5c(=O)c(CNC[C@@H]6CCO6)cnc5c4)c3Cl)c2Cl)ccc1CNC[C@@H]1CCC(=O)N1 [Example 306, 8-[2-Chloro-3-[2-chloro-3-[6-methoxy-5-[[[(2S)-5-oxopyrrolidin-2-yl]methylamino]methyl]-2-pyridyl]phenyl]phenyl]-3-[[[(2S)-oxetan-2-yl]methylamino]methyl]pyrido[1,2-a]pyrimidin-4-one] | 4.8
19 | COc1nc(-c2cccc(-c3cccc(-c4ccn5c(=O)c(CNC[C@@H]6CCCO6)cnc5c4)c3Cl)c2Cl)ccc1CNC[C@@H]1CCC(=O)N1 [Example 307, 8-[2-Chloro-3-[2-chloro-3-[6-methoxy-5-[[[(2S)-5-oxopyrrolidin-2-yl]methylamino]methyl]-2-pyridyl]phenyl]phenyl]-3-[[[(2S)-tetrahydrofuran-2-yl]methylamino]methyl]pyrido[1,2-a]pyrimidin-4-one] | 37
20 | COc1nc(-c2cccc(-c3cccc(-c4cc(C)n5c(=O)c(CNCCO)cnc5c4)c3Cl)c2Cl)ccc1CNC[C@@H]1CCC(=O)N1 [Example 308, (S)-8-(2,2′-Dichloro-3′-(6-methoxy-5-((((5-oxopyrrolidin-2-yl)methyl)amino)methyl)pyridin-2-yl)-[1,1′-biphenyl]-3-yl)-3-(((2-hydroxyethyl)amino)methyl)-6-methyl-4H-pyrido[1,2-a]pyrimidin-4-one] | 22
